Data set [1] deals with T1, Kappa-type opioid receptor (Homo sapiens, UniProt P41145). The data set is described as follows: Displacement of [3H]-diprenorphine from human kappa opioid receptor expressed in CHO cell membranes incubated for 1 hr by competition radioligand binding assay.
Data set [2] has as its target T2, Mu-type opioid receptor (Homo sapiens, UniProt P35372). To be noted: cho.
Data set [3] addresses T3, Delta-type opioid receptor (Homo sapiens, UniProt P41143). The data set is described as follows: Antagonist activity at human delta opioid receptor expressed in CHO cell membranes assessed as reduction in SNC80-induced [35S]GTPgammaS binding preincubated for 5 mins followed by SNC80 addition and measured after 1 hr. Format: functional.
Data set [4] can be described thus: Stability in human liver microsomes at 1 uM measured up to 60 mins by LC-MS/MS analysis. Format: ADME, Microsome. The conditions noted are these: 1 h.
The target in data set [5] is T2, Mu-type opioid receptor. The data set is described as follows: biochemical. It is filed as cell-based, CHO.
The target of data set [6] is T3, Delta-type opioid receptor. The data set is described as follows: Displacement of [3H]-diprenorphine from human delta opioid receptor expressed in CHO cell membranes incubated for 1 hr by competition radioligand binding assay. For orientation: Loss of bound radioactivity is the signal in a displacement assay; it reports binding, not function.
Data set [7] deals with T2, Mu-type opioid receptor. The data set is described as follows: Agonist activity at human mu opioid receptor expressed in CHO cell membranes assessed as stimulation of [35S]GTPgammaS binding incubated for 1 hr relative to DAMGO. Format: functional. (Binding of GTPγS marks nucleotide exchange on a G protein.)
Data set [8] has as its target T1, Kappa-type opioid receptor. Briefly: Agonist activity at human kappa opioid receptor expressed in CHO cell membranes incubated for 1 hr by [35S]GTPgammaS binding assay. It is filed as functional. To be noted: cho.
The target of data set [9] is T2, Mu-type opioid receptor. The data set is described as follows: biochemical.
Data set [10] concerns the target T1, Kappa-type opioid receptor. Briefly: Agonist activity at human kappa opioid receptor expressed in CHO cell membranes assessed as stimulation of [35S]GTPgammaS binding incubated for 1 hr relative to […]. It is filed as functional.
The test system of another data set is Mus musculus. Briefly: Antinociceptive activity in iv dosed CD-1 mouse measured after 15 mins by warm water tail-flick assay. It is filed as functional, organism-based.

Calls of active or inactive are those of the source. No cut-off for these calls is given here.

In the case of `Oc1ccc2c3c1O[C@H]1c4ncc(-c5ccccc5)cc4C[C@@]4(OCCCc5ccncc5)[C@@H](C2)N(CC2CC2)CC[C@]314`, the results for the Ki (in data set [1]; on Mu-type opioid receptor [5]; in data set [6]) were 21.9 nM, 3.82 nM and 29.2 nM, respectively. Further, the EC50 (commonly the concentration that produces a half-maximal response) on Mu-type opioid receptor [2] is listed as “Not Active”. The IC50 – broadly, the point on the concentration scale where inhibition reaches its midpoint – in data set [3] is less than 0.51 nM. Further, the Stability entry in data set [4] is listed as “Stable”. Besides, the Emax entry at Mu-type opioid receptor [7] was “inactive”.

Take `Oc1ccc2c3c1O[C@H]1c4ncc(-c5ccc(Cl)cc5)cc4C[C@@]4(OCCCc5ccncc5)[C@@H](C2)N(CC2CC2)CC[C@]314`: the figures for the Ki (in data set [1]; at Mu-type opioid receptor [5]; in data set [6]) were 10.3 nM, 5.37 nM and 5.24 nM, respectively. The EC50 entry on Mu-type opioid receptor [2] is listed as “Not Active”. The IC50 in [3] was found to be 4.69 nM. Moreover, the Stability entry in [4] is reported as “Stable”. Besides, at Mu-type opioid receptor [7], the Emax result was “inactive”.

For the compound `Oc1ccc2c3c1O[C@H]1c4ncc(-c5cn[nH]c5)cc4C[C@@]4(OCCCc5ccccc5)[C@@H](C2)N(CC2CC2)CC[C@]314`, the Ki (usually the equilibrium dissociation constant of an inhibitor or competing ligand from its target) in data set [1] worked out at 29.8 nM; on Mu-type opioid receptor [5], 121 nM; in data set [6], 257 nM. The IC50 in [3] was 0.62 nM. In [4], the Stability result was “Stable”. Moreover, the EC50 entry in data set [8] is “Not Active”; on Mu-type opioid receptor [9], 3.29 nM. Besides, in data set [10], the Emax result is “inactive”.

On to `CN(C)c1ccc(-c2cnc3c(c2)C[C@@]2(OCCCc4ccccc4)[C@H]4Cc5ccc(O)c6c5[C@@]2(CCN4CC2CC2)[C@H]3O6)cc1`, for which the Ki was determined as 6.18 nM in data set [1], 4.7 nM at Mu-type opioid receptor [5] and 53.1 nM in data set [6]. The IC50 in data set [3] amounted to 2.53 nM. For the same compound, in data set [4], the Stability result is given as “Stable”. Also, the EC50 result is “Not Active” in [8] and 2.1 nM on Mu-type opioid receptor [9]. For the same compound, the Emax entry in [10] was “inactive”.

On to `CN(C)c1cccc(-c2cnc3c(c2)C[C@@]2(OCCCc4ccccc4)[C@H]4Cc5ccc(O)c6c5[C@@]2(CCN4CC2CC2)[C@H]3O6)c1`, for which the Ki in [1] was 11.9 nM; at Mu-type opioid receptor [5], 15.8 nM; in [6] it was 68.9 nM. For the same compound, the IC50 in [3] came out at 3.76 nM. In addition, in data set [4], the Stability entry was “Stable”. In addition, the EC50 entry in data set [8] is “Not Active”; at Mu-type opioid receptor [9], 1.5 nM. In addition, the Emax entry in data set [10] is “inactive”.

Regarding `CN(C)c1ccccc1-c1cnc2c(c1)C[C@@]1(OCCCc3ccccc3)[C@H]3Cc4ccc(O)c5c4[C@@]1(CCN3CC1CC1)[C@H]2O5`, the Ki was 7.96 nM in data set [1], 6.97 nM at Mu-type opioid receptor [5] and 69.6 nM in [6]. The IC50 in data set [3] is 12.3 nM. The Stability result in [4] is “Stable”. Besides, the EC50 result in [8] is “Not Active”; on Mu-type opioid receptor [9], 233 nM. The Emax entry in [10] is “inactive”.

`Oc1ccc2c3c1O[C@H]1c4ncc(-c5ccc(Cl)cc5)cc4C[C@@]4(OCc5ccc6ccccc6n5)[C@@H](C2)N(CC2CC2)CC[C@]314`: the figures for the Ki (in [1]; at Mu-type opioid receptor [5]; in data set [6]) were 31 nM, 799 nM and 32.5 nM, respectively. Further, the EC50 result at Mu-type opioid receptor [2] is “Not Active”. Further, in data set [3], the IC50 turned out to be 10.8 nM. Also, the Stability entry in data set [4] is “Stable”. Also, the Emax entry at Mu-type opioid receptor [7] was “inactive”.

With `COc1cc(-c2cnc3c(c2)C[C@@]2(OCCCc4ccccc4)[C@H]4Cc5ccc(O)c6c5[C@@]2(CCN4CC2CC2)[C@H]3O6)ccn1`, the Ki turned out to be 6.62 nM in data set [1], 10.7 nM at Mu-type opioid receptor [5] and 3.5 nM in data set [6]. In addition, in [3], the IC50 is 0.7 nM. Besides, the Stability result in data set [4] is on record as “Stable”. In addition, the results for the EC50 result (in data set [8]; at Mu-type opioid receptor [9]) were “Not Active” and 2.69 nM, respectively. Also, the Emax entry in data set [10] was “inactive”.

Turning to `Oc1ccc2c3c1O[C@H]1c4ncc(-c5ccc(Cl)cc5)cc4C[C@@]4(OCCOc5ccccc5)[C@@H](C2)N(CC2CC2)CC[C@]314`, the Ki in data set [1] is 21.3 nM; on Mu-type opioid receptor [5], 819 nM; in data set [6], 172 nM. The EC50 result at Mu-type opioid receptor [2] was “Not Active”. Also, in [3], the IC50 is 25.4 nM. The Stability result in data set [4] was “Stable”. On Mu-type opioid receptor [7], the Emax result was “inactive”.

With `Cc1cccc(-c2cnc3c(c2)C[C@@]2(OCCCc4ccccc4)[C@H]4Cc5ccc(O)c6c5[C@@]2(CCN4CC2CC2)[C@H]3O6)c1`, the Ki is 17.6 nM in data set [1], 24.4 nM on Mu-type opioid receptor [5] and 26.8 nM in [6]. The IC50 in data set [3] was less than 0.169 nM. Further, the Stability entry in data set [4] was “Stable”. Further, the EC50 result in data set [8] is “Not Active”; at Mu-type opioid receptor [9], 20.6 nM. For the same compound, the Emax result in data set [10] was “inactive”.

`Cc1nnc(-c2cnc3c(c2)C[C@@]2(OCCCc4ccccc4)[C@H]4Cc5ccc(O)c6c5[C@@]2(CCN4CC2CC2)[C@H]3O6)o1`: the Ki in data set [1] came out at 14.8 nM; on Mu-type opioid receptor [5], 3.18 nM; in data set [6], 8.12 nM. Also, in [3], the IC50 was less than 0.17 nM. Besides, the Stability result in data set [4] is “Stable”. Moreover, in the data set with Mus musculus, the Activity result was “Dose-dependent effect”. For the same compound, the EC50 entry is “Not Active” in data set [8] and 17.5 nM at Mu-type opioid receptor [9]. Besides, in data set [10], the Emax entry was “inactive”.

In the case of `Cc1cc(-c2cnc3c(c2)C[C@@]2(OCCCc4ccccc4)[C@H]4Cc5ccc(O)c6c5[C@@]2(CCN4CC2CC2)[C@H]3O6)ccn1`, the results for the Ki (in [1]; at Mu-type opioid receptor [5]; in [6]) were less than 0.51 nM, 1.05 nM and 63.5 nM, respectively. For the same compound, the IC50 in [3] came out at 0.39 nM. Besides, the Stability entry in [4] is listed as “Stable”. Also, the results for the EC50 result (in data set [8]; on Mu-type opioid receptor [9]) were “Not Active” and 1.88 nM, respectively. The Emax entry in data set [10] is “inactive”.

As to `Oc1ccc2c3c1O[C@H]1c4ncc(-c5ccncn5)cc4C[C@@]4(OCCCc5ccccc5)[C@@H](C2)N(CC2CC2)CC[C@]314`, the Ki in data set [1] worked out at 30.8 nM; at Mu-type opioid receptor [5], 66.2 nM; in [6], 22.1 nM. In [3], the IC50 is 0.71 nM. Further, in data set [4], the Stability result was “Stable”. In addition, the EC50 result in [8] was “Not Active”; at Mu-type opioid receptor [9], more than 3330 nM. In [10], the Emax entry was “inactive”.

With `CN(C)Cc1ccccc1-c1cnc2c(c1)C[C@@]1(OCCCc3ccccc3)[C@H]3Cc4ccc(O)c5c4[C@@]1(CCN3CC1CC1)[C@H]2O5`, the Ki in data set [1] worked out at 22.7 nM; at Mu-type opioid receptor [5], 56.4 nM; in data set [6], 14 nM. For the same compound, the IC50 in [3] stood at 11.7 nM. The Stability result in data set [4] is recorded as “Stable”. Also, the figures for the EC50 entry (in data set [8]; on Mu-type opioid receptor [9]) were “Not Active” and 28.9 nM, respectively. Also, the Emax entry in [10] is “inactive”.

Take `COc1ccccc1-c1cnc2c(c1)C[C@@]1(OCCCc3ccccc3)[C@H]3Cc4ccc(O)c5c4[C@@]1(CCN3CC1CC1)[C@H]2O5`: the Ki came to 126 nM in data set [1], 61.9 nM at Mu-type opioid receptor [5] and 29.7 nM in data set [6]. In data set [3], the IC50 is 0.79 nM. For the same compound, the Stability result in [4] is on record as “Stable”. For the same compound, the EC50 result in data set [8] was “Not Active”; on Mu-type opioid receptor [9] it was 7.18 nM. The Emax entry in data set [10] was “inactive”.

Consider `Oc1ccc2c3c1O[C@H]1c4ncc(-c5cncnc5)cc4C[C@@]4(OCCCc5ccccc5)[C@@H](C2)N(CC2CC2)CC[C@]314`, for which the Ki in data set [1] worked out at 24.8 nM; at Mu-type opioid receptor [5], 47.9 nM; in data set [6] it was 5.18 nM. Besides, the 50% inhibitory concentration (IC50) in [3] amounted to 0.87 nM. The Stability result in data set [4] is “Stable”. For the same compound, the half-maximal effective concentration (EC50) result in data set [8] is “Not Active”; at Mu-type opioid receptor [9], more than 3330 nM. Also, the Emax entry in data set [10] is “inactive”.

With `Cn1cc(-c2cnc3c(c2)C[C@@]2(OCCCc4ccccc4)[C@H]4Cc5ccc(O)c6c5[C@@]2(CCN4CC2CC2)[C@H]3O6)cn1`, the inhibition constant (Ki) in [1] is 8.4 nM; at Mu-type opioid receptor [5], 3.79 nM; in data set [6] it was 7.96 nM. Besides, the IC50 in data set [3] amounted to 19.6 nM. Further, the Stability entry in data set [4] is “Stable”. In addition, the values for the EC50 entry (in data set [8]; on Mu-type opioid receptor [9]) were “Not Active” and 659 nM, respectively. The Emax entry in [10] is “inactive”.

The values are drawn from ChEMBL document CHEMBL4627399, “Synthesis and Structure-Activity Relationships of 5'-Aryl-14-alkoxypyridomorphinans: Identification of a μ Opioid Receptor Agonist/δ Opioid Receptor Antagonist Ligand with Systemic Antinociceptive Activity and Diminished Opioid Side Effects” (J Med Chem, 2020).
